According to ChEMBL document CHEMBL2380218, “A facile chemo-, regio- and stereoselective synthesis and cholinesterase inhibitory activity of spirooxindole-pyrrolizine-piperidine hybrids” (Bioorg Med Chem Lett, 2013):

Key:
[1] = target: Cholinesterase (Equus caballus, UniProt P81908); assay: Inhibition of equine serum BuChE using S-butyrylthiocholine chloride as substrate incubated for 15 mins prior to substrate addition measured after 30 mins by Ellman's method
[2] = target: Acetylcholinesterase (Homo sapiens, UniProt P22303); assay: Inhibition of AChE (unknown origin) using acetylthiocholine iodide as substrate incubated for 15 mins prior to substrate addition measured after 30 mins by Ellman's method
Chain of Acetylcholinesterase (P22303 whole entry): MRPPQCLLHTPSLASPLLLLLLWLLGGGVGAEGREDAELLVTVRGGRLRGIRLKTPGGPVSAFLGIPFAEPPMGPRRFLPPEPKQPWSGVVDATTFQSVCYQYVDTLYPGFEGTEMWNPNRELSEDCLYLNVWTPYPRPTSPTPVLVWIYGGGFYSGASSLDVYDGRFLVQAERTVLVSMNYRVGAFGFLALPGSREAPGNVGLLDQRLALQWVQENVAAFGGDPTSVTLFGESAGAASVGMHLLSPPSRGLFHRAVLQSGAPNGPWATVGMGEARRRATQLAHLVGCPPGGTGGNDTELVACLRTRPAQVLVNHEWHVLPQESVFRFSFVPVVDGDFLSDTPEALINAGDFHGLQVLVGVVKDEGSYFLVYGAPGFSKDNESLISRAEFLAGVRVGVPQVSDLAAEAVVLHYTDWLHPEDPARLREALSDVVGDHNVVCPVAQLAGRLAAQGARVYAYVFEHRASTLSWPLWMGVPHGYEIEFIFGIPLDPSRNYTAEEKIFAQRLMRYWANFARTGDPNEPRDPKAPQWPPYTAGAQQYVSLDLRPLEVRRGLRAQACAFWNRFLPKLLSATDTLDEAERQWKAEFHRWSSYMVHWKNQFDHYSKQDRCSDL

Chain of Cholinesterase (P81908 whole entry): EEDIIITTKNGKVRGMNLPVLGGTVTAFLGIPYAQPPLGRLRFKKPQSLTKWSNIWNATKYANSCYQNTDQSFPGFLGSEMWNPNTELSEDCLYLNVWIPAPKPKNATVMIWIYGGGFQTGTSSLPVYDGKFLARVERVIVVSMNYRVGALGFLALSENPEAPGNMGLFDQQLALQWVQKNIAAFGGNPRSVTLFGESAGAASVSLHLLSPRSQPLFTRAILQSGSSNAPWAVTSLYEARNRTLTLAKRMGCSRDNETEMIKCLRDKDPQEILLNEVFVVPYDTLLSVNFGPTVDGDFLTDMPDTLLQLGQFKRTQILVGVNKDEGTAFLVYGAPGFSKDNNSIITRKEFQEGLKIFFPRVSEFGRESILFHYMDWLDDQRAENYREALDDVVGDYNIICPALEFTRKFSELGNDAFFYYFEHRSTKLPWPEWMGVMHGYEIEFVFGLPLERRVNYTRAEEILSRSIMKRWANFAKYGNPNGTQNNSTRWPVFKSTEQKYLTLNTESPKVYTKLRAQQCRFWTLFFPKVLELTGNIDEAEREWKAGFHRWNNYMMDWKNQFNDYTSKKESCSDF

| Compound | IC50 [1] [µM] | IC50 [2] [µM] |
| --- | --- | --- |
| O=C1/C(=C/c2cccc3ccccc23)CN(C(=O)[C@H]2C[C@H]3CCCN3[C@]23C(=O)Nc2cc(Cl)ccc23)C/C1=C\c1cccc2ccccc12 | 9.65 | 5.81 |
| O=C1/C(=C/c2ccccc2)CN(C(=O)[C@H]2C[C@H]3CCCN3[C@]23C(=O)Nc2cc(Cl)ccc23)C/C1=C\c1ccccc1 | 15.4 | 15.7 |
| Cc1ccccc1/C=C1\CN(C(=O)[C@H]2C[C@H]3CCCN3[C@]23C(=O)Nc2cc(Cl)ccc23)C/C(=C\c2ccccc2C)C1=O | 15.1 | 11.2 |
| COc1ccccc1/C=C1\CN(C(=O)[C@H]2C[C@H]3CCCN3[C@]23C(=O)Nc2cc(Cl)ccc23)C/C(=C\c2ccccc2OC)C1=O | 7.82 | 14.5 |
| O=C1/C(=C/c2ccccc2Cl)CN(C(=O)[C@H]2C[C@H]3CCCN3[C@]23C(=O)Nc2cc(Cl)ccc23)C/C1=C\c1ccccc1Cl | 17.4 | 5.08 |
| O=C1/C(=C/c2ccccc2F)CN(C(=O)[C@H]2C[C@H]3CCCN3[C@]23C(=O)Nc2cc(Cl)ccc23)C/C1=C\c1ccccc1F | 3.13 | 29.5 |
| O=C1/C(=C/c2cccc([N+](=O)[O-])c2)CN(C(=O)[C@H]2C[C@H]3CCCN3[C@]23C(=O)Nc2cc(Cl)ccc23)C/C1=C\c1cccc([N+](=O)[O-])c1 | 17.2 | 4.28 |
| O=C1/C(=C/c2ccc(Cl)cc2Cl)CN(C(=O)[C@H]2C[C@H]3CCCN3[C@]23C(=O)Nc2cc(Cl)ccc23)C/C1=C\c1ccc(Cl)cc1Cl | 20.1 | 3.33 |
| Cc1ccc(/C=C2\CN(C(=O)[C@H]3C[C@H]4CCCN4[C@]34C(=O)Nc3cc(Cl)ccc34)C/C(=C\c3ccc(C)cc3)C2=O)cc1 | 22.2 | 7.6 |
| O=C1/C(=C/c2ccc(Cl)cc2)CN(C(=O)[C@H]2C[C@H]3CCCN3[C@]23C(=O)Nc2cc(Cl)ccc23)C/C1=C\c1ccc(Cl)cc1 | 28.2 | 3.36 |
| O=C1/C(=C/c2ccc(F)cc2)CN(C(=O)[C@H]2C[C@H]3CCCN3[C@]23C(=O)Nc2cc(Cl)ccc23)C/C1=C\c1ccc(F)cc1 | 3.64 | 22.3 |
